Results from patent US20230210116A1, “HONEYBEE REPELLENT” (EARTH CORPORATION, priority 2020, published 2023).

Tests used:
honeybees [1] = assay: Test for Confirmation of Effect from Combined Use with Pesticide 1, 2: number of dead honeybees; format: in vivo, western honeybees; conditions: for Number of dead honeybees: of 50 honeybees; for honeybees of the tested population that had died: test zone 1
From the text: (§1) Cinnamyl alcohol was used as the active ingredient of the honeybee repellent proposed by the present invention, while dinotefuran was used as the pesticide.
(§2) As the test sample representing the pesticide alone, a 0.01% by weight per volume ethanol solution of dinotefuran was used.
(§3) (2) Preparation of Feeding Stations and Water Stations 2 cotton pads (80 mm×170 mm) were layered on a lid of KP cup (150 mm in diameter) and the cotton pads were impregnated with 40% sugar water (80 g), after which two disposable wooden chopsticks (80 mm in length) were placed as “landing areas,” for use as “test insect (honeybee, stink bug) feeding station A.”
(§4) Also, equivalents of feeding station A above, except that water (80 g) was impregnated instead of 40% sugar water (80 g), were used as “water stations.”
(§5) “Test insect (honeybee, stink bug) feeding station A,” whose cotton pads were sprayed uniformly with 5 mL (containing 0.5 mg of dinotefuran) of the 0.01% by weight per volume ethanol solution of dinotefuran, was used as “test insect (honeybee, stink bug) feeding station B.”
(§6) “Test insect (honeybee, stink bug) feeding station A,” whose cotton pads were sprayed uniformly with 5 mL (containing 5 mg of cinnamyl alcohol and 0.5 mg of dinotefuran) of the mixed ethanol solution (0.1% by weight per volume of cinnamyl alcohol, 0.01% by weight per volume of dinotefuran), was used as “test insect (honeybee, stink bug) feeding station C.”
(§7) 3 spaces (80 cm×80 cm×80 cm, 25° C.) covered with nylon gauze were designated as “untreated zone” in which a water station and feeding station A were installed, “test zone 1” in which a water station and feeding stations A, B were installed, and “test zone 2” in which a water station and feeding stations A, C were installed.
(§8) In each of these “untreated zone,” “test zone 1,” and “test zone 2,” 50 honeybees (western honeybees) and 10 stink bugs (southern green stink bugs) were released and the number of dead honeybees and that of dead stink bugs were checked at the start of testing as well as 3 hours, 18 hours, and 20 hours after the start of testing.
(§9) Carvacrol was used as the active ingredient of the honeybee repellent proposed by the present invention, while clothianidin or fipronil was used as the pesticide.
As a test sample representing a combined use of the honeybee repellent proposed by the present invention and the pesticide, a mixed ethanol solution containing carvacrol and clothianidin (0.1% by weight per volume of carvacrol and 0.01% by weight per volume of clothianidin) or mixed ethanol solution containing carvacrol and fipronil (0.1% by weight per volume of carvacrol and 0.01% by weight per volume of fipronil) was used.
As a test sample representing the pesticide alone, a 0.01% by weight per volume ethanol solution of clothianidin or 0.01% by weight per volume ethanol solution of fipronil was used.
In the same manner as in <Test for Confirmation of Effect from Combined Use with Pesticide 1> above, the number of deaths among 50 honeybees (western honeybees) and that among 10 stink bugs (southern green stink bugs) were checked in each of the “untreated zone,” “test zone 1,” and “test zone 2.” Based on the results of <Test for Confirmation of Effect from Combined Use with Pesticide 1> above, the test was terminated when the number of dead honeybees in “test zone 1” reached around one half the tested population.

stink bugs [2] = assay: Test for Confirmation of Effect from Combined Use with Pesticide 1, 2: number of dead stink bugs; format: in vivo, southern green stink bugs; conditions: of 10 stink bugs
From the text: as §1, §2, §3, §4, §5, §6, §7, §8, §9
As a test sample representing a combined use of the honeybee repellent proposed by the present invention and the pesticide, a mixed ethanol solution containing carvacrol and clothianidin (0.1% by weight per volume of carvacrol and 0.01% by weight per volume of clothianidin) or mixed ethanol solution containing carvacrol and fipronil (0.1% by weight per volume of carvacrol and 0.01% by weight per volume of fipronil) was used. […]

stink bugs [3] = assay: Test for Confirmation of Stink Bug Behaviors against Active Ingredients 1, 2, 3 (treated filter paper); format: in vivo, southern green stink bugs
From the text: The test samples in “Test for Confirmation of Honeybee Repelling Effect 1” above were used.
A liquid calcium carbonate/ethanol dispersion was applied on the entire interior wall of a KP cup (100 mm in diameter×90 mm in height) and air-dried, after which a filter paper (90 mm in diameter) was fixed on the bottom face of the KP cup using double-sided tape. A different filter paper (90 mm in diameter) was cut along its diameter and the resulting semicircle-shaped paper was uniformly treated with 400 μL of each test sample or sample for correction, and then placed over the filter paper fixed on the aforementioned bottom face of the KP cup by allowing the circular parts to overlap, for use as a testing device.
The “repelling rate Y” and “corrected repelling rate Z” were calculated from the above “time A (sec)” and “time B (sec)” using the calculation formula below. For the “repelling rate of sample for correction” used to calculate the “corrected repelling rate Z,” the repelling rate of each of the samples for correction above (ethanol alone or water alone being a solvent for the active ingredient) was used.
Corrected repelling rate Z (%)={Repelling rate of test sample−Repelling rate of sample for correction}/{100−Repelling rate of sample for correction}×100
For the test samples, the test samples in “Test for Confirmation of Honeybee Repelling Effect 2” above were used.

honeybees [4] = assay: Test for Confirmation of Honeybee Repelling Effect 1, 2, 3 (feeding station with 40% sugar water); format: in vivo; conditions: for Corrected repelling rate (%) Honeybees: Test 3, 5 mL; for Corrected repelling rate R (%): honeybees
[5] = 0 h (start of testing), 0.01% w/v pesticide, with or without 0.1% w/v repelling component, 5 mL on feeding station
[6] = 3 hours after the start of test
[7] = Test 3, 0.1% by weight per volume solution, 400 μL
[8] = 0.1% by weight per volume solution
[9] = Test 2, 0.1% by weight per volume solution, 400 μL
[10] = Test 2, 0.1% by weight per volume solution, 5 mL (active ingredient 5 mg)
[11] = Test 1, 2% by weight per volume solution, 400 μL on filter paper, 30 minutes
[12] = Test 1, 2% by weight per volume solution
[13] = Test 1, 2% by weight per volume solution, 5 mL sprayed (active ingredient 0.1 g)

N#Cc1nn(-c2c(Cl)cc(C(F)(F)F)cc2Cl)c(N)c1[S+]([O-])C(F)(F)F (stereo not drawn) [fipronil]
Number of dead honeybees (honeybees [1]; [5]): 0 | Number of dead honeybees (honeybees [1]; 2 h): 14 | Number of dead honeybees (honeybees [1]; 3 h): 32 | honeybees of the tested population that had died (honeybees [1]; [6]): approx. 60%

CN/C(=N/CC1CCOC1)N[N+](=O)[O-] (stereo not drawn) [dinotefuran]
Number of dead stink bugs (stink bugs [2]; 0 h (start of testing)): 0 | Number of dead stink bugs (stink bugs [2]; 3 h): 2 | Number of dead stink bugs (stink bugs [2]; 18 h): 5 | Number of dead stink bugs (stink bugs [2]; 20 h): 6 | Number of dead honeybees (honeybees [1]; [5]): 0 | Number of dead honeybees (honeybees [1]; 3 h): 1 | Number of dead honeybees (honeybees [1]; 18 h): 3 | Number of dead honeybees (honeybees [1]; 20 h): 21 | honeybees of the tested population that had died (honeybees [1]; 20 hours after the start of testing): approx. 40%

CC(=O)OCC=Cc1ccccc1 [y-18, cinnamyl acetate]
repelling of stink bugs and other injurious insects to be exterminated (in words) (stink bugs [3]): not repelling stink bugs | Corrected repelling rate (%) Stinkbugs (stink bugs [3]; [7]): ∘ | Corrected repelling rate (%) Honeybees (honeybees [4]; [8]): 69.0%

CCCCC=O [x-7, valeraldehyde]
Corrected repelling rate (%) Stinkbugs (stink bugs [3]; [9]): <0% | Corrected repelling rate R (%) (honeybees [4]; [10]): 50.7%

CCCCOC(C)=O [y-46, butyl acetate]
Corrected repelling rate (%) Stinkbugs (stink bugs [3]; 0.5 h, 0.1 % strength): x (“x” for rates “not <0”) | Corrected repelling rate (%) Honeybees (honeybees [4]; [8]): 40.2%

CCCCCCCC [a-1, octane]
Corrected repelling rate (%) Stinkbugs (stink bugs [3]; [11]): <0% | repelling effect / repelled behaviors of honeybees (in words) (honeybees [4]; [12]): excellent repelling effect | Corrected repelling rate R (%) (honeybees [4]; [13]): 57.0%

CN/C(=N\[N+](=O)[O-])NCc1cnc(Cl)s1 [clothianidin]
Number of dead honeybees (honeybees [1]; [5]): 0 | Number of dead honeybees (honeybees [1]; 1 h): 11 | Number of dead honeybees (honeybees [1]; 2 h): 18 | Number of dead honeybees (honeybees [1]; 3 h): 39 | honeybees of the tested population that had died (honeybees [1]; [6]): approx. 60%

Cc1cccc(C)n1 [x-14, 2,6-dimethylpyridine]
Corrected repelling rate (%) Stinkbugs (stink bugs [3]; [9]): <0% | Corrected repelling rate R (%) (honeybees [4]; [10]): 50.0%

CCCCCCCCCCCC(=O)OCC [y-41, ethyl laurate]
repelling of stink bugs and other injurious insects to be exterminated (in words) (stink bugs [3]): not repelling stink bugs | Corrected repelling rate (%) Stinkbugs (stink bugs [3]; [7]): ∘ | Corrected repelling rate (%) Honeybees (honeybees [4]; [8]): 59.6%

C=CCCCCCCCCC(=O)OCC [y-39, ethyl 10-undecenoate]
repelling of stink bugs and other injurious insects to be exterminated (in words) (stink bugs [3]): not repelling stink bugs | Corrected repelling rate (%) Stinkbugs (stink bugs [3]; [7]): ∘ | Corrected repelling rate (%) Honeybees (honeybees [4]; [8]): 75.8%

OCC=Cc1ccccc1 [x-3, cinnamyl alcohol]
Corrected repelling rate (%) Stinkbugs (stink bugs [3]; [9]): <0% | Corrected repelling rate R (%) (honeybees [4]; [10]): 98.2%

CC1(C)C2CCC1(C)C(O)C2 (stereo not drawn) [y-1, borneol]
repelling of stink bugs and other injurious insects to be exterminated (in words) (stink bugs [3]): not repelling stink bugs | Corrected repelling rate (%) Stinkbugs (stink bugs [3]; [7]): ∘ | Corrected repelling rate (%) Honeybees (honeybees [4]; [8]): 80.0%

CC1=CCC(=O)O1 [c-3, α-angelicalactone]
Corrected repelling rate (%) Stinkbugs (stink bugs [3]; [11]): <0% | repelling effect / repelled behaviors of honeybees (in words) (honeybees [4]; [12]): excellent repelling effect | Corrected repelling rate R (%) (honeybees [4]; [13]): 31.7%

c1coc(Cn2cccc2)c1 [d-3, 1-furfurylpyrrole]
Corrected repelling rate (%) Stinkbugs (stink bugs [3]; [7]): ∘ | Corrected repelling rate (%) Honeybees (honeybees [4]; [8]): 25.4%

c1ccc(CCCc2ccccn2)cc1 [x-13, 2-(3-phenylpropyl)pyridine]
Corrected repelling rate (%) Stinkbugs (stink bugs [3]; [9]): <0% | Corrected repelling rate R (%) (honeybees [4]; [10]): 86.4%
